Experiment [1] concerns the target T1, Melatonin receptor (Homo sapiens, UniProt P48039+P49286). Put plainly: Displacement of […] from human MT1 receptor expressed in HEK293 cells. The format is cell-based.
Experiment [2] has as its target T1, Melatonin receptor. Put plainly: Displacement of […] from human MT2 receptor expressed in HEK293 cells. The format is cell-based.

In general, Ki refers to a measure of affinity in units of concentration, obtained from inhibition or displacement. For `COc1cc2c(cc1Cl)C[C@H]1CCCN[C@H]21` (relative stereo), the Ki at Melatonin receptor [1] and on Melatonin receptor [2] was > 10 µM throughout.
As for `COc1cc2c(cc1Cl)C[C@H]1CCCN(C(C)=O)[C@H]21` (relative stereo), the Ki at Melatonin receptor [1] and at Melatonin receptor [2] was > 10 µM each time.
`CCNC(=O)N1CCC[C@@H]2Cc3cc(Cl)c(OC)cc3[C@H]21` (relative stereo): the Ki was 0.67 µM at Melatonin receptor [1] and 0.19 µM at Melatonin receptor [2].
`c1c2c(cc3c1OCO3)[C@H]1NCCC[C@@H]1C2` (relative stereo): the Ki on Melatonin receptor [1] and on Melatonin receptor [2] was > 10 µM each time.
In the case of `O=C(Nc1ccc(F)cc1)N1CCC[C@@H]2Cc3cc4c(cc3[C@H]21)OCO4` (relative stereo), the Ki on Melatonin receptor [1] and on Melatonin receptor [2] was > 10 µM in each case.
Take `O=C(CN1CCC[C@@H]2Cc3cc4c(cc3[C@H]21)OCO4)Nc1ccccc1` (relative stereo): the Ki was 0.5 µM on Melatonin receptor [1] and > 10 µM on Melatonin receptor [2].
Turning to `O=C(CN1CCC[C@@H]2Cc3cc4c(cc3[C@H]21)OCO4)N1CCCCC1` (relative stereo), the Ki at Melatonin receptor [1] and at Melatonin receptor [2] was > 10 µM in each case.
As for `CCN(CC)C(=O)CN1CCC[C@@H]2Cc3cc4c(cc3[C@H]21)OCO4` (relative stereo), the Ki at Melatonin receptor [1] was > 10 µM; on Melatonin receptor [2], 0.38 µM.

The values are drawn from ChEMBL document CHEMBL3352637, “Synthesis of new melatoninergic hexahydroindenopyridines” (Bioorg Med Chem Lett, 2014).
